How the values were obtained:
[1] = biological target: Tyrosine-protein kinase BTK (Homo sapiens) (UniProt Q06187); assay: Inhibition of human full length BTK expressed in baculovirus assessed as substrate phosphorylation using fluorescence-labelled peptides as substrate at 0.2 uM after 90 mins by microfluidic peptide phosphorylation assay
[2] = biological target: MAP kinase p38 (Homo sapiens) (UniProt O15264+Q15759+Q16539+P53778); assay: Inhibition of human full length p38 beta2 expressed in Escherichia coli cell assessed as substrate phosphorylation using fluorescence-labelled peptides as substrate at 0.2 uM after 90 mins by microfluidic peptide phosphorylation assay
[3] = biological target: MAP kinase-activated protein kinase 3 (Homo sapiens) (UniProt Q16644); assay: Inhibition of human full length MAPKAPK3 expressed in Escherichia coli cell assessed as substrate phosphorylation using fluorescence-labelled peptides as substrate at 9 uM after 90 mins by microfluidic peptide phosphorylation assay
Chain of MAP kinase-activated protein kinase 3 (Homo sapiens) (Q16644 whole entry, looked up): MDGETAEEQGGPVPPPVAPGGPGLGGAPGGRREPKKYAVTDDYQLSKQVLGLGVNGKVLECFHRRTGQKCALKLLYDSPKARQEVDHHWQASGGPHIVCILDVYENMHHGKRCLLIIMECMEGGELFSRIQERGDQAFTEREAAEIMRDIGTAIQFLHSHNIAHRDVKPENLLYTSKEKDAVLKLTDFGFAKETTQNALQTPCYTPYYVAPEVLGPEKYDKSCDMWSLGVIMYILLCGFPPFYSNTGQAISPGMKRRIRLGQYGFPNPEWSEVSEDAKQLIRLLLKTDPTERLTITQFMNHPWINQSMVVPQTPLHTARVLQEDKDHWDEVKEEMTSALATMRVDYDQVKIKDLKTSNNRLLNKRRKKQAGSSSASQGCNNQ

[4] = biological target: T1, Calcium/calmodulin-dependent protein kinase type IV (Homo sapiens) (UniProt Q16566); assay: Inhibition of human full length CAMK4 expressed in baculovirus assessed as substrate phosphorylation using fluorescence-labelled peptides as substrate at 9 uM after 90 mins by microfluidic peptide phosphorylation assay
T1 sequence (whole entry): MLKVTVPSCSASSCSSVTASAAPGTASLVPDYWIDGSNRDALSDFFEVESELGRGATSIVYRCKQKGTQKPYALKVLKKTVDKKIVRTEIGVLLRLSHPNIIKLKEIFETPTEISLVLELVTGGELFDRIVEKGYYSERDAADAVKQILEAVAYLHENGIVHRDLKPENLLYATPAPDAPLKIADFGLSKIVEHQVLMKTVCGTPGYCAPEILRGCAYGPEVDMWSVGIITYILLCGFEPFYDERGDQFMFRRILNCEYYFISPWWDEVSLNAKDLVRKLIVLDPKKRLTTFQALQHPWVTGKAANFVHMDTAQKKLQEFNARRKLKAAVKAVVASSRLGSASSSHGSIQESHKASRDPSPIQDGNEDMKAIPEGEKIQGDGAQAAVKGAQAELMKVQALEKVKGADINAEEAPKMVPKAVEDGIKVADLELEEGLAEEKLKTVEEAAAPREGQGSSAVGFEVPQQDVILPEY

[5] = biological target: Calcium/calmodulin-dependent protein kinase type II subunit delta (Homo sapiens) (UniProt Q13557); assay: Inhibition of human full length CAMK2D expressed in baculovirus assessed as substrate phosphorylation using fluorescence-labelled peptides as substrate at 2 uM after 90 mins by microfluidic peptide phosphorylation assay
Chain of Calcium/calmodulin-dependent protein kinase type II subunit delta (Homo sapiens) (Q13557 whole entry): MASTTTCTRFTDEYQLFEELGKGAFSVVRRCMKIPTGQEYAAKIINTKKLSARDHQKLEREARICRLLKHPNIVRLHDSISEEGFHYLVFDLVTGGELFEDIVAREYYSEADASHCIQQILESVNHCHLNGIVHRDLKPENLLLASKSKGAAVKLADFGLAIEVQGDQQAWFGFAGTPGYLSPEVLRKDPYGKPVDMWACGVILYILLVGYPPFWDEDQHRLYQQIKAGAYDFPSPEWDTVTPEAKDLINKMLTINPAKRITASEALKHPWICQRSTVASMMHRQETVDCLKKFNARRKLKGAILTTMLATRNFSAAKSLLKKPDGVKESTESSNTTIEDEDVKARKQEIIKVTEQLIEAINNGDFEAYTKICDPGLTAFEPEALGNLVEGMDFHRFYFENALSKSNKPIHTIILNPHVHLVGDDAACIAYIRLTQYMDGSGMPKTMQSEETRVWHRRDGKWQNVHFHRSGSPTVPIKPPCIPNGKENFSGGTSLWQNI

[6] = biological target: Calcium/calmodulin-dependent protein kinase type II subunit delta (Homo sapiens) (UniProt Q13557); settings: 0.1 uM
Description: Inhibition of human full length CAMK2D expressed in baculovirus assessed as substrate phosphorylation using fluorescence-labelled peptides as substrate at 0.1 uM after 90 mins by microfluidic peptide phosphorylation assay

[7] = biological target: T2, Serine/threonine-protein kinase D1 (Homo sapiens) (UniProt Q15139); assay: Inhibition of human full length PKD1 expressed in baculovirus assessed as substrate phosphorylation using fluorescence-labelled peptides as substrate at […] after 90 mins by microfluidic peptide phosphorylation assay
T2 sequence (whole entry): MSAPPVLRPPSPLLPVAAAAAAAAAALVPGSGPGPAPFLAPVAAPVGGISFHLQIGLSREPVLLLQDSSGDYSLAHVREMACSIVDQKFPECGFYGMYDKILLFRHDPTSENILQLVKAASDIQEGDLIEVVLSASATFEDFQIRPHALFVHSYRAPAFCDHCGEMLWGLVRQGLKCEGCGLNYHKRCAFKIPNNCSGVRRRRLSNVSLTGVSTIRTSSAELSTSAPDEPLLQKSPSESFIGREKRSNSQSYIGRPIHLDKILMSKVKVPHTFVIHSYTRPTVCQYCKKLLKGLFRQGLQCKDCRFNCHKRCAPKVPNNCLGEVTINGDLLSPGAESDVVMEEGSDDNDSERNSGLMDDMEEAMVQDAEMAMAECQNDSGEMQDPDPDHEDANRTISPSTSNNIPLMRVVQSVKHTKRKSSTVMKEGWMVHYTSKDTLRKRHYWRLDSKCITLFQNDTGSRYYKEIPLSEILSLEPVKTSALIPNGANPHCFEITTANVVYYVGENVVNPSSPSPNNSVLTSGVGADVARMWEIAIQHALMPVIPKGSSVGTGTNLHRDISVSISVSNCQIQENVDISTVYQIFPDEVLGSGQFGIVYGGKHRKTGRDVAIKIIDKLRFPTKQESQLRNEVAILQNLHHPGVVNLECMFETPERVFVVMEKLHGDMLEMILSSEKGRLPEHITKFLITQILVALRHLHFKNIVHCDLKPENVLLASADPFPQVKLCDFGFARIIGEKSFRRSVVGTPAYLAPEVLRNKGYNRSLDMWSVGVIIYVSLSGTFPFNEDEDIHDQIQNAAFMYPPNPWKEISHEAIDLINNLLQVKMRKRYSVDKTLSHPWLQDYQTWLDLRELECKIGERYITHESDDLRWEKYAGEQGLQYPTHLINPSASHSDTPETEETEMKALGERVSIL

[8] = biological target: Ribosomal protein S6 kinase alpha-2 (Homo sapiens) (UniProt Q15349); assay: Inhibition of human full length RSK3 expressed in baculovirus assessed as substrate phosphorylation using fluorescence-labelled peptides as substrate at 0.06 uM after 90 mins by microfluidic peptide phosphorylation assay
Chain of Ribosomal protein S6 kinase alpha-2 (Homo sapiens) (Q15349 whole entry, the tested form may be a part): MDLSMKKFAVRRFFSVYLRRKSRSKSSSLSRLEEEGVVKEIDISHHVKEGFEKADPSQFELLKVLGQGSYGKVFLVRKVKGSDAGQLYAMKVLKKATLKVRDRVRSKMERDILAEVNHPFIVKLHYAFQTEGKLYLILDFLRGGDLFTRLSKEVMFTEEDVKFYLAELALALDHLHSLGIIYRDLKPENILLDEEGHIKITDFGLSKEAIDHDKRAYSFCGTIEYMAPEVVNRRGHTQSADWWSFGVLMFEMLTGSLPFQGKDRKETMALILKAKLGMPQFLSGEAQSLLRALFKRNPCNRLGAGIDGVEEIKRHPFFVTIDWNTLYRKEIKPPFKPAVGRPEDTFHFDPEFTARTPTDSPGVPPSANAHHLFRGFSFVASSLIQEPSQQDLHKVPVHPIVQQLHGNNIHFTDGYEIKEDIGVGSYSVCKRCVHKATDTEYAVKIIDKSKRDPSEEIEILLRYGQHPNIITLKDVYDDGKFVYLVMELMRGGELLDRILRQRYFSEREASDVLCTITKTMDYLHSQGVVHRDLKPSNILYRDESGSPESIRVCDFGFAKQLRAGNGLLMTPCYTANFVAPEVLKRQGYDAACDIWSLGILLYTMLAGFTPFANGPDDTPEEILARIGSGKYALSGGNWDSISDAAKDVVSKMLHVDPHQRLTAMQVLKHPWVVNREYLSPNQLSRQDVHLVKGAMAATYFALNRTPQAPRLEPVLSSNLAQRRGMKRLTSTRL

[9] = biological target: Platelet-derived growth factor receptor alpha (Homo sapiens) (UniProt P16234); assay: Inhibition of human PDGFR alpha catalytic domain expressed in baculovirus assessed as substrate phosphorylation using fluorescence-labelled peptides as substrate at 0.06 uM after 90 mins by microfluidic peptide phosphorylation assay
Chain of Platelet-derived growth factor receptor alpha (Homo sapiens) (P16234 whole entry, the tested form may be a part): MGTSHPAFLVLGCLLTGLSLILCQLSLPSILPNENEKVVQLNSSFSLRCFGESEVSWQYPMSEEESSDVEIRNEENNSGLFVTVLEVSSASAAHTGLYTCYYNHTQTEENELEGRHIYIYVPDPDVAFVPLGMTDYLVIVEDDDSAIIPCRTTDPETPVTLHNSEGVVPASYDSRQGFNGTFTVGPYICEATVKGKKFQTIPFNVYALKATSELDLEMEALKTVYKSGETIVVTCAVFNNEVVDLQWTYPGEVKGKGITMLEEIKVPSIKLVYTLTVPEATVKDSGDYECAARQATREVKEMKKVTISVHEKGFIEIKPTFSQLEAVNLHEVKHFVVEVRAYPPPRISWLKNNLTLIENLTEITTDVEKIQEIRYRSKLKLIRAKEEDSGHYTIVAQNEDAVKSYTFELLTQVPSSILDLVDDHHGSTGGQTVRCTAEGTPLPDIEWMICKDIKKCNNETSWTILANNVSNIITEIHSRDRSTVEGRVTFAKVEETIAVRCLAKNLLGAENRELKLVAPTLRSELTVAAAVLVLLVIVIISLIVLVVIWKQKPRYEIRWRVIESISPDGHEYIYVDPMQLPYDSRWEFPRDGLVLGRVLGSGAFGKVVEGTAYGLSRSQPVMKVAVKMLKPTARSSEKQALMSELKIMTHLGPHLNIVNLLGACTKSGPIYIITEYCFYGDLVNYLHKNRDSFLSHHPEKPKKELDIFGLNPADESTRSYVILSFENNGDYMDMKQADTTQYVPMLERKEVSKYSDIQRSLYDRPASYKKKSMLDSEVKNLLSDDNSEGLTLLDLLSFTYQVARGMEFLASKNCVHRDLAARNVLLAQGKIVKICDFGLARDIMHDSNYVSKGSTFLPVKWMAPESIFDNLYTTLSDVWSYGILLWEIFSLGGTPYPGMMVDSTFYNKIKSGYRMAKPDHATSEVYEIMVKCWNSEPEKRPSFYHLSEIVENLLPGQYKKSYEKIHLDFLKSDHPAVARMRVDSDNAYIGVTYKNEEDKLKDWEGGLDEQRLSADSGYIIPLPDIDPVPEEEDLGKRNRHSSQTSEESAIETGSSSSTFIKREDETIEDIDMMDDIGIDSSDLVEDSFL

[10] = biological target: Protein kinase C beta type (Homo sapiens) (UniProt P05771); assay: Inhibition of human truncated PKC beta1 expressed in baculovirus assessed as substrate phosphorylation using fluorescence-labelled peptides as substrate at 1000 uM after 90 mins by microfluidic peptide phosphorylation assay
Chain of Protein kinase C beta type (Homo sapiens) (P05771 2-671 limits assumed): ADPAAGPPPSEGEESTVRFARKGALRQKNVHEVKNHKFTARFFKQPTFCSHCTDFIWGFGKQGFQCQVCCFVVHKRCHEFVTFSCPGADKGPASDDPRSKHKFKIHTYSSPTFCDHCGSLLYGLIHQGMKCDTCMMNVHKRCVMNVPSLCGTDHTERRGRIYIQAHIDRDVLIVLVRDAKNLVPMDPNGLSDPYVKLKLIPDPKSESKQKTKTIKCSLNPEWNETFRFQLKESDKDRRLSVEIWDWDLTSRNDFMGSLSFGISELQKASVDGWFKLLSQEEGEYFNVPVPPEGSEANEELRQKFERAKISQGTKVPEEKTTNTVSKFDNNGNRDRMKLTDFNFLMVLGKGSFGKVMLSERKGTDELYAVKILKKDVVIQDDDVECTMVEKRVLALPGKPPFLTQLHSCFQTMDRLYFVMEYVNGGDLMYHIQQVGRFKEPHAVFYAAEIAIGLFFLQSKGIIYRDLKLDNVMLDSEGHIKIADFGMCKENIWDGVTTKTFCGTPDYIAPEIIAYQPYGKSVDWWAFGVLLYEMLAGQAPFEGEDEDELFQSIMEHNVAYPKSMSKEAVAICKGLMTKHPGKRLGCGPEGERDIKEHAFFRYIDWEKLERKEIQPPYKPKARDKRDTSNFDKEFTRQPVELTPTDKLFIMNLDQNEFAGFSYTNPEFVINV

Chain of Tyrosine-protein kinase BTK (Homo sapiens) (Q06187 whole entry): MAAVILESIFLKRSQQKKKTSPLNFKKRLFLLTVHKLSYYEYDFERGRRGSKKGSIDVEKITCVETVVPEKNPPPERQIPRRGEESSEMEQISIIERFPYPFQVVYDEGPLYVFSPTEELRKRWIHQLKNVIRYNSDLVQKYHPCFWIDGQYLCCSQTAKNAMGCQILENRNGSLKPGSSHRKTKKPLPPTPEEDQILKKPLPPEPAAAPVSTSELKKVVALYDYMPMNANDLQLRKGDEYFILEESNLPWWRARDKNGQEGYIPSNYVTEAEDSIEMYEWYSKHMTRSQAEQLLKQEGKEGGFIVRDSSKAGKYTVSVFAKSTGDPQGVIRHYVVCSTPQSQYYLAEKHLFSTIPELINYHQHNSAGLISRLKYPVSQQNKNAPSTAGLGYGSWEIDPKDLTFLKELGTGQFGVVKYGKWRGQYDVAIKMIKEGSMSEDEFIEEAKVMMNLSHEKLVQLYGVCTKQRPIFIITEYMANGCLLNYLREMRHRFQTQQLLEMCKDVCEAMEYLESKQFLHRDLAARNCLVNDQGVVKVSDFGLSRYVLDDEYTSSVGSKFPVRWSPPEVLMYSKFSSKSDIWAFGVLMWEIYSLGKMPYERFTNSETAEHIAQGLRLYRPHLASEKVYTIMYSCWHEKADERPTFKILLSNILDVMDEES

Clc1ccc(C2(c3ccc(-c4ncnc5[nH]cnc45)cc3)CCNCC2)cc1
inhibition [1]: 0% | inhibition [2]: 2.5%

NCC1CN(c2ncnc3[nH]c4cnccc4c23)CCO1 (stereo not given)
inhibition [3]: 74% | inhibition [4]: 31.5%

NC1CCN(c2ncnc3[nH]ccc23)CC1
inhibition [5]: 8%

C[C@H](CN(C)C)Oc1nc(Nc2cc3cccc(Cl)c3cn2)cnc1C#N
inhibition [6]: 0%

COC(=O)c1cnc(Nc2cnc(C#N)cn2)cc1NCC1CCNCC1
inhibition [7]: 3%

NC1(Cc2ccc(Cl)cc2)CCN(c2ncnc3[nH]ccc23)CC1
inhibition [8]: 0% | inhibition [9]: 0%

c1cnc2[nH]ccc2c1
inhibition [10]: 46%
